Data as given in ChEMBL document CHEMBL6083291, “Discovery of Thiochroman Derivatives as Potent, Oral Selective Estrogen Receptor Degraders and Antagonists for the Treatment of Endocrine-Resistant Breast Cancer” (J Med Chem, 2024).

Columns and labels:
[1] = tested on: MCF7; test: Antiproliferative activity against human MCF7 cells assessed as reduction in cell viability incubated for 6 days by CellTiter-Glo reagent based luminescence analysis
[2] = target: T1, Estrogen receptor (Homo sapiens, UniProt P03372); assay type: cell-based, HEK293
T1 sequence (P03372 whole entry): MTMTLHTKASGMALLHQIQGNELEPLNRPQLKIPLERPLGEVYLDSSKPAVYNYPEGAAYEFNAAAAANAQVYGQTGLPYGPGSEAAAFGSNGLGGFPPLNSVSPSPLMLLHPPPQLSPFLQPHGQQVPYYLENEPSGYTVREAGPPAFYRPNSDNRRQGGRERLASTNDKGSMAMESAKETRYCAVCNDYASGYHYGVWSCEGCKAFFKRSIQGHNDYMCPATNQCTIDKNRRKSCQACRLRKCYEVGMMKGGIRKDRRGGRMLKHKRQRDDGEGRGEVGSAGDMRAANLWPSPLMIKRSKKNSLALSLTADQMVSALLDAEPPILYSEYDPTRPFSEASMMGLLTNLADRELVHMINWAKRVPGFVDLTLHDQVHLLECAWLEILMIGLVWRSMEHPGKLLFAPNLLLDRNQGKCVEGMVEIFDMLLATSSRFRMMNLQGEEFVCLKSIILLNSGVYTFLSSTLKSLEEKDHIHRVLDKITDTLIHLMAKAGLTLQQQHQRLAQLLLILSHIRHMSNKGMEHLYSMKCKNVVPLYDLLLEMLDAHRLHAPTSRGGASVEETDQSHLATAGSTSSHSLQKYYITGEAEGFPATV

[3] = tested on: MCF7; test: Antiproliferative activity against human MCF7 cells harboring ER-alpha Y537S mutant assessed as inhibition of cell growth
[4] = target: T1, Estrogen receptor; test: Induction of ER-alpha degradation in human MCF7 cells incubated for 24 hrs by In-Cell Western blot analysis; assay type: cell-based
[5] = Antiproliferative activity against endocrine-resistant human MCF7 Tam1 cells assessed as inhibition of cell growth; conditions: Tamoxifen-resistant MCF7
[6] = Ratio of drug level in brain to plasma in mouse; assay type: ADME; conditions: brain and plasma
[7] = Clearance in Sprague-Dawley rat plasma at 2 mg/kg, iv measured for 24 hrs by LC-MS/MS analysis; assay type: ADME, organism-based
[8] = Toxicity in Sprague-Dawley rat assessed as thickened endometrium in uterus at 10 mg/kg, po qd for 3 days by Hematoxylin-Eosin staining based analysis; assay type: organism-based; conditions: in vivo, 72 h, time 3 day
[9] = Half life in Sprague-Dawley rat plasma at 20 mg/kg, po measured for 10 hrs by LC-MS/MS analysis; assay type: ADME, organism-based
[10] = MRT in Sprague-Dawley rat brain at 20 mg/kg, po measured for 10 hrs by LC-MS/MS analysis; assay type: ADME, organism-based
[11] = AUC(0 to t) in Sprague-Dawley rat plasma at 20 mg/kg, po measured for 10 hrs by LC-MS/MS analysis; assay type: ADME, organism-based
[12] = Volume of distribution at steady state in Sprague-Dawley rat plasma at 2 mg/kg, iv measured for 24 hrs by LC-MS/MS analysis; assay type: ADME, organism-based; conditions: read-out: Vdss
[13] = Cmax in Sprague-Dawley rat plasma at 10 mg/kg, po measured for 24 hrs by LC-MS/MS analysis; assay type: ADME, organism-based
[14] = animal or person; conditions: Homo sapiens, Tamoxifen-resistant MCF7, po, 504 h, read-out: TGI
[15] = Toxicity against Balb/c mouse xenografted with human MCF7 Tam1 cells assessed as changes in body weight at 10 to 30 mg/kg, po qd for 21 days; assay type: organism-based; conditions: in vivo, 504 h, dose 10-30 mg/kg, time 21 day
[16] = Half life in Sprague-Dawley rat plasma at 2 mg/kg, iv measured for 24 hrs by LC-MS/MS analysis; assay type: ADME, organism-based
[17] = Cmax in Sprague-Dawley rat plasma at 20 mg/kg, po measured for 10 hrs by LC-MS/MS analysis; assay type: ADME, organism-based
[18] = Half life in Sprague-Dawley rat brain at 20 mg/kg, po measured for 10 hrs by LC-MS/MS analysis; assay type: ADME, organism-based
[19] = Cmax in Sprague-Dawley rat brain at 20 mg/kg, po measured for 10 hrs by LC-MS/MS analysis; assay type: ADME, organism-based
[20] = Oral bioavailability in Sprague-Dawley rat at 10 mg/kg measured for 24 hrs by LC-MS/MS analysis; assay type: ADME, organism-based; conditions: in vivo
[21] = tested on: BT-474; test: Antiproliferative activity against human BT-474 cells assessed as reduction in cell viability
[22] = Half life in Sprague-Dawley rat plasma at 10 mg/kg, po measured for 24 hrs by LC-MS/MS analysis; assay type: ADME, organism-based
[23] = AUC(0 to t) in Sprague-Dawley rat plasma at 2 mg/kg, iv measured for 24 hrs by LC-MS/MS analysis; assay type: ADME, organism-based
[24] = tested on: T47D; test: Antiproliferative activity against human T47D cells assessed as reduction in cell viability
[25] = Tmax in Sprague-Dawley rat plasma at 10 mg/kg, po measured for 24 hrs by LC-MS/MS analysis; assay type: ADME, organism-based
[26] = tested on: MDA-MB-361; test: Antiproliferative activity against human MDA-MB-361 cells assessed as reduction in cell viability
[27] = MRT in Sprague-Dawley rat plasma at 20 mg/kg, po measured for 10 hrs by LC-MS/MS analysis; assay type: ADME, organism-based
[28] = AUC(0 to t) in Sprague-Dawley rat plasma at 10 mg/kg, po measured for 24 hrs by LC-MS/MS analysis; assay type: ADME, organism-based
[29] = animal or person; conditions: Homo sapiens, Tamoxifen-resistant MCF7, po, 504 h, read-out: TGI; remark: listed apart in the source
[30] = MRT in Sprague-Dawley rat plasma at 2 mg/kg, iv measured for 24 hrs by LC-MS/MS analysis; assay type: ADME, organism-based
[31] = MRT in Sprague-Dawley rat plasma at 10 mg/kg, po measured for 24 hrs by LC-MS/MS analysis; assay type: ADME, organism-based
[32] = tested on: CAMA-1; test: Antiproliferative activity against human CAMA-1 cells assessed as reduction in cell viability
[33] = Tmax in Sprague-Dawley rat plasma at 20 mg/kg, po measured for 10 hrs by LC-MS/MS analysis; assay type: ADME, organism-based
[34] = AUC(0 to t) in Sprague-Dawley rat brain at 20 mg/kg, po measured for 10 hrs by LC-MS/MS analysis; assay type: ADME, organism-based; conditions: in vivo
[35] = C0 in Sprague-Dawley rat plasma at 2 mg/kg, iv by LC-MS/MS analysis; assay type: ADME, organism-based
[36] = Ratio of drug level in brain to plasma in Sprague-Dawley rat at 20 mg/kg, po measured for 10 hrs by LC-MS/MS analysis; assay type: ADME, organism-based; conditions: brain and plasma
[37] = Tmax in Sprague-Dawley rat brain at 20 mg/kg, po measured for 10 hrs by LC-MS/MS analysis; assay type: ADME, organism-based
[38] = Antagonist activity at ER-alpha Y537S mutant (unknown origin) expressed in human MCF7 cells assessed as inhibition of ER-alpha transcription by immunofluorescence assay
[39] = Estrogenic like activity in Sprague-Dawley rat assessed as increase in ratio of uterine wet weight to body weight at 60 mg/kg, po qd for 3 days relative to control; assay type: toxicity, organism-based; conditions: in vivo, 72 h, time 3 day
[40] = Toxicity in Sprague-Dawley rat assessed as thickened endometrium in uterus at 60 mg/kg, po qd for 3 days by Hematoxylin-Eosin staining based analysis; assay type: organism-based; conditions: in vivo, 72 h, time 3 day
[41] = Toxicity in Sprague-Dawley rat assessed as thickened endometrium in uterus at 0.1 mg/kg, po qd for 3 days by Hematoxylin-Eosin staining based analysis; assay type: organism-based; conditions: in vivo, 72 h, time 3 day
[42] = Estrogenic like activity in Sprague-Dawley rat assessed as increase in ratio of uterine wet weight to body weight at 0.1 mg/kg, po qd for 3 days relative to control; assay type: toxicity, organism-based; conditions: in vivo, 72 h, time 3 day
[43] = Antagonist activity at ER-alpha D538G mutant (unknown origin) expressed in human MCF7 cells assessed as inhibition of ER-alpha transcription by immunofluorescence assay

C[C@@H]1Cc2c([nH]c3ccccc23)[C@@H](c2c(F)cc(NC3CN(CCCF)C3)cc2F)N1CC(F)(F)CO [GIREDESTRANT]
IC50 ([1]; Homo sapiens, MCF7, 144 h): 0.2 nM | IC50 [2]: 0.43 nM | IC50 [3]: 6.77 nM | DC50 [4]: 0.3 nM | IC50 [5]: 1.22 nM

CCNCCc1ccc(CN(CC)c2cc(OC)ccc2[C@@H]2CCc3cc(O)ccc3C2)cc1 [ELACESTRANT]
Kp [6]: 0.36

COc1cc(F)ccc1[C@H]1CSc2cc(O)ccc2[C@H]1c1ccc(OCCN2CC(CF)C2)cc1
clearance [7]: 23.3 mL/min/kg | Activity [8]: Non-toxic | IC50 ([1]; mcf7): 0.25 nM | half-life [9]: 5.6 h | MRT [10]: 12.4 h | AUC(0-t) at 10 h [11]: 3660 ng·h/mL | Vd [12]: 6.6 L/kg | Cmax [13]: 198 ng/mL | inhibition in vivo at 10 mg/kg [14]: 26.8% | Activity [15]: Non-toxic | half-life [16]: 4 h | Cmax [17]: 509 ng/mL | half-life [18]: 7 h | Cmax [19]: 1470 ng/g | IC50 [3]: 10.6 nM | bioavailability [20]: 19.9% | IC50 [21]: 4 nM | half-life [22]: 8.9 h | AUC(0-t) at 24 h [23]: 1370 ng·h/mL | IC50 [24]: 4 nM | Tmax [25]: 3 h | IC50 [26]: ~15 nM | MRT [27]: 10.6 h | AUC(0-t) at 24 h [28]: 1360 ng·h/mL | inhibition in vivo at 30 mg/kg [29]: 64.5% | MRT [30]: 5.24 h | MRT [31]: 13.4 h | IC50 [32]: 4 nM | Tmax [33]: 6 h | AUCt [34]: 11170 ng·h/g | C0 [35]: 741 ng/mL | Kp at 10 h [36]: 3.05 | Tmax [37]: 6 h | IC50 [5]: 5.37 nM

O=C(O)c1ccc2c(c1)CCCC(c1ccc(Cl)cc1Cl)=C2c1ccc(O[C@H]2CCN(CCCF)C2)cc1 [AMCENESTRANT]
IC50 ([1]; Homo sapiens, MCF7, 144 h): 3.9 nM | IC50 [38]: 57.5 nM

CC/C(=C(\c1ccc(O)cc1)c1ccc(OCCN(C)C)cc1)c1ccccc1 [AFIMOXIFENE]
fold change (FC) [39]: 2 | Activity [40]: Toxic

Oc1ccc2c(c1)SC[C@H](c1cc(F)c(F)cc1F)[C@@H]2c1ccc(OCCN2CC(CF)C2)cc1
IC50 ([1]; mcf7): 0.25 nM | IC50 [21]: 4 nM | IC50 [24]: 4 nM | IC50 [26]: ~15 nM | IC50 [32]: 4 nM

C#C[C@]1(O)CC[C@H]2[C@@H]3CCc4cc(O)ccc4[C@H]3CC[C@@]21C [ETHINYL ESTRADIOL]
Activity [41]: Toxic | fold change (FC) [42]: 3

C[C@]12CC[C@@H]3c4ccc(O)cc4C[C@@H](CCCCCCCCC[S+]([O-])CCCC(F)(F)C(F)(F)F)[C@H]3[C@@H]1CC[C@@H]2O (stereo partly drawn) [FULVESTRANT]
IC50 [43]: 15.3 nM | IC50 [38]: 13.3 nM
